According to ChEMBL document CHEMBL3045612, “Solvent- and catalyst-free synthesis of bis-adducts of 3-formylchromone as potential antimicrobial agents” (2013):
≈ marks a conversion by molar mass, not a printed value.

Assays:
[1] = test system: Talaromyces marneffei; test: Fungicidal activity against Talaromyces marneffei after 48 hr; type: functional
[2] = test system: Aspergillus fumigatus; test: Fungicidal activity against Aspergillus fumigatus after 48 hr; type: functional
[3] = test system: Trichophyton mentagrophytes; test: Fungicidal activity against Trichophyton mentagrophytes after 48 hr; type: functional
[4] = test system: Candida albicans; test: Fungicidal activity against Candida albicans after 48 hr; type: functional
[5] = test system: Talaromyces marneffei; test: Antifungal activity against Talaromyces marneffei assessed as growth inhibition after 48 hr by macrodilution method; type: functional
[6] = test system: Trichophyton mentagrophytes; test: Antifungal activity against Trichophyton mentagrophytes assessed as growth inhibition after 48 hr by macrodilution method; type: functional
[7] = test system: Aspergillus fumigatus; test: Antifungal activity against Aspergillus fumigatus assessed as growth inhibition after 48 hr by macrodilution method; type: functional
[8] = test system: Candida albicans; test: Antifungal activity against Candida albicans assessed as growth inhibition after 48 hr by macrodilution method; type: functional
[9] = test system: Talaromyces marneffei; test: Antifungal activity against Talaromyces marneffei assessed as growth inhibition after 3 to 4 days by disk diffusion assay; type: functional
[10] = test system: Klebsiella pneumoniae; test: Antibacterial activity against Klebsiella pneumoniae clinical isolate assessed as growth inhibition after 24 hr by disk diffusion assay; type: functional
[11] = test system: Pseudomonas aeruginosa; test: Antibacterial activity against Pseudomonas aeruginosa ATCC 27853 assessed as growth inhibition after 24 hr by disk diffusion assay; type: functional
[12] = test system: Trichophyton mentagrophytes; test: Antifungal activity against Trichophyton mentagrophytes assessed as growth inhibition after 3 to 4 days by disk diffusion assay; type: functional
[13] = test system: Aspergillus fumigatus; test: Antifungal activity against Aspergillus fumigatus assessed as growth inhibition after 3 to 4 days by disk diffusion assay; type: functional
[14] = test system: Candida albicans; test: Antifungal activity against Candida albicans assessed as growth inhibition after 3 to 4 days by disk diffusion assay; type: functional
[15] = test system: Escherichia coli; test: Bactericidal activity against Escherichia coli ATCC 25922 after 18 to 24 hr; type: functional
[16] = test system: Klebsiella pneumoniae; test: Bactericidal activity against Klebsiella pneumoniae clinical isolate after 18 to 24 hr; type: functional
[17] = test system: Pseudomonas aeruginosa; test: Bactericidal activity against Pseudomonas aeruginosa ATCC 27853 after 18 to 24 hr; type: functional
[18] = test system: Staphylococcus aureus; test: Bactericidal activity against methicillin-resistant Staphylococcus aureus after 18 to 24 hr; type: functional
[19] = test system: Streptococcus pyogenes; test: Bactericidal activity against Streptococcus pyogenes after 18 to 24 hr; type: functional
[20] = test system: Escherichia coli; test: Antibacterial activity against Escherichia coli ATCC 25922 assessed as growth inhibition after 24 hr by macrodilution method; type: functional; conditions: ATCC 25922, 24 h
[21] = test system: Klebsiella pneumoniae; test: Antibacterial activity against Klebsiella pneumoniae clinical isolate assessed as growth inhibition after 24 hr by macrodilution method; type: functional
[22] = test system: Pseudomonas aeruginosa; test: Antibacterial activity against Pseudomonas aeruginosa ATCC 27853 assessed as growth inhibition after 24 hr by macrodilution method; type: functional; conditions: ATCC 27853, 24 h
[23] = test system: Staphylococcus aureus; test: Antibacterial activity against methicillin-resistant Staphylococcus aureus assessed as growth inhibition after 24 hr by macrodilution method; type: functional
[24] = test system: Escherichia coli; test: Antibacterial activity against Escherichia coli ATCC 25922 assessed as growth inhibition after 24 hr by disk diffusion assay; type: functional
[25] = test system: Streptococcus pyogenes; test: Antibacterial activity against Streptococcus pyogenes assessed as growth inhibition after 24 hr by macrodilution method; type: functional
[26] = test system: Staphylococcus aureus; test: Antibacterial activity against methicillin-resistant Staphylococcus aureus assessed as growth inhibition after 24 hr by disk diffusion assay; type: functional
[27] = test system: Streptococcus pyogenes; test: Antibacterial activity against Streptococcus pyogenes assessed as growth inhibition after 24 hr by disk diffusion assay; type: functional
[28] = test system: Staphylococcus aureus; test: Antibacterial activity against methicillin-resistant Staphylococcus aureus assessed as growth inhibition at 30 ug after 24 hr by halo zone test; conditions: read-out: DIZ
[29] = test system: Pseudomonas aeruginosa; test: microbe, parasite or virus in culture; conditions: ATCC 27853, 24 h, read-out: DIZ
Description: Antibacterial activity against Pseudomonas aeruginosa ATCC 27853 assessed as growth inhibition at 30 ug after 24 hr by halo zone test

[30] = test system: Escherichia coli; test: microbe, parasite or virus in culture; conditions: ATCC 25922, 24 h, read-out: DIZ
Description: Antibacterial activity against Escherichia coli ATCC 25922 assessed as growth inhibition at 30 ug after 24 hr by halo zone test

[31] = test system: Talaromyces marneffei; test: Antifungal activity against Talaromyces marneffei assessed as growth inhibition after 3 to 4 days by halo zone test; type: functional
[32] = test system: Trichophyton mentagrophytes; test: Antifungal activity against Trichophyton mentagrophytes assessed as growth inhibition after 3 to 4 days by halo zone test; type: functional
[33] = test system: Candida albicans; test: Antifungal activity against Candida albicans assessed as growth inhibition after 3 to 4 days by halo zone test; type: functional
[34] = test system: Aspergillus fumigatus; test: Antifungal activity against Aspergillus fumigatus assessed as growth inhibition after 3 to 4 days by halo zone test; type: functional

For `Cc1cc(O)c(C(c2c(O)cc(C)oc2=O)c2coc3ccccc3c2=O)c(=O)o1`, the MFC [1] was 50 µg/mL (≈ 122 µM), the MFC [2] was 50 µg/mL (≈ 122 µM) and the MFC [3] was 50 µg/mL (≈ 122 µM). For the same molecule, the MFC [4] was 50 µg/mL (≈ 122 µM), the MIC [5] was 25 µg/mL (≈ 61.2 µM) and the MIC [6] was 25 µg/mL (≈ 61.2 µM). The MIC [7] was 12.5 µg/mL (≈ 30.6 µM), the MIC [8] was 12.5 µg/mL (≈ 30.6 µM) and the “diameter of the inhibition zone (DIZ)” value [9] was 14.2 mm. For the same molecule, the “diameter of the inhibition zone (DIZ)” value [10] was 17.2 mm, the “diameter of the inhibition zone (DIZ)” value [11] was 21.2 mm and the “diameter of the inhibition zone (DIZ)” value [12] was 17.8 mm. For the same molecule, the “diameter of the inhibition zone (DIZ)” value [13] was 21.3 mm, the “diameter of the inhibition zone (DIZ)” value [14] was 24.1 mm and the MBC [15] was 50 µg/mL (≈ 122 µM). For the same molecule, the MBC [16] was 50 µg/mL (≈ 122 µM), the MBC [17] was 50 µg/mL (≈ 122 µM) and the MBC [18] was 50 µg/mL (≈ 122 µM). It also gave an MBC [19] of 50 µg/mL (≈ 122 µM), an MIC [20] of 25 µg/mL (≈ 61.2 µM) and an MIC [21] of 25 µg/mL (≈ 61.2 µM). For the same molecule, the MIC [22] was 12.5 µg/mL (≈ 30.6 µM), the MIC [23] was 25 µg/mL (≈ 61.2 µM) and the “diameter of the inhibition zone (DIZ)” value [24] was 18.6 mm. The MIC [25] was 25 µg/mL (≈ 61.2 µM), the “diameter of the inhibition zone (DIZ)” value [26] was 18.5 mm and the “diameter of the inhibition zone (DIZ)” value [27] was 19.1 mm.
With `Cc1cc2oc(=O)c(C(c3c(O)c4cc(C)c(C)cc4oc3=O)c3coc4ccccc4c3=O)c(O)c2cc1C` the MFC [1] was 25 µg/mL (≈ 46.6 µM), the MFC [2] was 25 µg/mL (≈ 46.6 µM) and the MFC [3] was 50 µg/mL (≈ 93.2 µM). For the same molecule, the MFC [4] was 25 µg/mL (≈ 46.6 µM), the MIC [5] was 12.5 µg/mL (≈ 23.3 µM) and the MIC [6] was 12.5 µg/mL (≈ 23.3 µM). The MIC [7] was 12.5 µg/mL (≈ 23.3 µM), the MIC [8] was 12.5 µg/mL (≈ 23.3 µM) and the “diameter of the inhibition zone (DIZ)” value [9] was 14.8 mm. For the same molecule, the “diameter of the inhibition zone (DIZ)” value [10] was 19.3 mm, the “diameter of the inhibition zone (DIZ)” value [11] was 23.3 mm and the “diameter of the inhibition zone (DIZ)” value [12] was 19.4 mm. For the same molecule, the “diameter of the inhibition zone (DIZ)” value [13] was 22.1 mm, the “diameter of the inhibition zone (DIZ)” value [14] was 27.2 mm and the MBC [15] was 50 µg/mL (≈ 93.2 µM). For the same molecule, the MBC [16] was 50 µg/mL (≈ 93.2 µM), the MBC [17] was 25 µg/mL (≈ 46.6 µM) and the MBC [18] was 25 µg/mL (≈ 46.6 µM). The MBC [19] was 25 µg/mL (≈ 46.6 µM), the MIC [20] was 25 µg/mL (≈ 46.6 µM) and the MIC [21] was 12.5 µg/mL (≈ 23.3 µM). The MIC [22] was 12.5 µg/mL (≈ 23.3 µM), the MIC [23] was 12.5 µg/mL (≈ 23.3 µM) and the “diameter of the inhibition zone (DIZ)” value [24] was 20.8 mm. For the same molecule, the MIC [25] was 12.5 µg/mL (≈ 23.3 µM), the “diameter of the inhibition zone (DIZ)” value [26] was 20.7 mm and the “diameter of the inhibition zone (DIZ)” value [27] was 21.2 mm.
`O=c1oc2ccccc2c(O)c1C(c1c(O)c2ccccc2oc1=O)c1coc2ccccc2c1=O` gave an MFC [1] of 100 µg/mL (≈ 208 µM), an MFC [2] of 50 µg/mL (≈ 104 µM) and an MFC [3] of 50 µg/mL (≈ 104 µM). For the same molecule, the MFC [4] was 100 µg/mL (≈ 208 µM), the MIC [5] was 25 µg/mL (≈ 52 µM) and the MIC [6] was 25 µg/mL (≈ 52 µM). The MIC [7] was 25 µg/mL (≈ 52 µM), the MIC [8] was 25 µg/mL (≈ 52 µM) and the “diameter of the inhibition zone (DIZ)” value [9] was 13.1 mm. The “diameter of the inhibition zone (DIZ)” value [10] was 17.3 mm, the “diameter of the inhibition zone (DIZ)” value [11] was 26.4 mm and the “diameter of the inhibition zone (DIZ)” value [12] was 19.3 mm. The “diameter of the inhibition zone (DIZ)” value [13] was 16.7 mm, the “diameter of the inhibition zone (DIZ)” value [14] was 19.1 mm and the MBC [15] was 50 µg/mL (≈ 104 µM). For the same molecule, the MBC [16] was 50 µg/mL (≈ 104 µM), the MBC [17] was 50 µg/mL (≈ 104 µM) and the MBC [18] was 50 µg/mL (≈ 104 µM). For the same molecule, the MBC [19] was 50 µg/mL (≈ 104 µM), the MIC [20] was 25 µg/mL (≈ 52 µM) and the MIC [21] was 12.5 µg/mL (≈ 26 µM). The MIC [22] was 25 µg/mL (≈ 52 µM), the MIC [23] was 25 µg/mL (≈ 52 µM) and the “diameter of the inhibition zone (DIZ)” value [24] was 22.1 mm. For the same molecule, the MIC [25] was 25 µg/mL (≈ 52 µM), the “diameter of the inhibition zone (DIZ)” value [26] was 18.1 mm and the “diameter of the inhibition zone (DIZ)” value [27] was 21.5 mm.
With `Cc1[nH]n(-c2ccccc2)c(=O)c1C(c1coc2ccccc2c1=O)c1c(C)[nH]n(-c2ccccc2)c1=O` the MFC [1] was 100 µg/mL (≈ 198 µM), the MFC [2] was 50 µg/mL (≈ 99.1 µM) and the MFC [3] was 50 µg/mL (≈ 99.1 µM). It also gave an MFC [4] of 50 µg/mL (≈ 99.1 µM), an MIC [5] of 25 µg/mL (≈ 49.5 µM) and an MIC [6] of 25 µg/mL (≈ 49.5 µM). The MIC [7] was 25 µg/mL (≈ 49.5 µM), the MIC [8] was 25 µg/mL (≈ 49.5 µM) and the “diameter of the inhibition zone (DIZ)” value [9] was 14.3 mm. The “diameter of the inhibition zone (DIZ)” value [10] was 14.5 mm, the “diameter of the inhibition zone (DIZ)” value [11] was 13.1 mm and the “diameter of the inhibition zone (DIZ)” value [12] was 18.1 mm. For the same molecule, the “diameter of the inhibition zone (DIZ)” value [13] was 20.7 mm, the “diameter of the inhibition zone (DIZ)” value [14] was 23.9 mm and the MBC [15] was 100 µg/mL (≈ 198 µM). It also gave an MBC [16] of 100 µg/mL (≈ 198 µM), an MBC [17] of 100 µg/mL (≈ 198 µM) and an MBC [18] of 50 µg/mL (≈ 99.1 µM). It also gave an MBC [19] of 50 µg/mL (≈ 99.1 µM), an MIC [20] of 25 µg/mL (≈ 49.5 µM) and an MIC [21] of 25 µg/mL (≈ 49.5 µM). For the same molecule, the MIC [22] was 25 µg/mL (≈ 49.5 µM), the MIC [23] was 25 µg/mL (≈ 49.5 µM) and the “diameter of the inhibition zone (DIZ)” value [24] was 15.5 mm. For the same molecule, the MIC [25] was 25 µg/mL (≈ 49.5 µM), the “diameter of the inhibition zone (DIZ)” value [26] was 15.6 mm and the “diameter of the inhibition zone (DIZ)” value [27] was 16.1 mm.
For `O=C(O)c1cn(C2CC2)c2cc(N3CCNCC3)c(F)cc2c1=O` [CIPROFLOXACIN], the zone of inhibition at 30 µg/disc [28] was 22 mm, the zone of inhibition at 30 µg/disc [29] was 32 mm and the zone of inhibition at 30 µg/disc [30] was 27 mm.
Molecule `COC1=CC(=O)C[C@@H](C)[C@]12Oc1c(Cl)c(OC)cc(OC)c1C2=O` [GRISEOFULVIN] has an MFC [1] of 25 µg/mL (≈ 70.9 µM), an MFC [2] of 12.5 µg/mL (≈ 35.4 µM) and an MFC [3] of 25 µg/mL (≈ 70.9 µM). The MFC [4] was 25 µg/mL (≈ 70.9 µM), the MIC [5] was 12.5 µg/mL (≈ 35.4 µM) and the MIC [6] was 6.25 µg/mL (≈ 17.7 µM). For the same molecule, the MIC [7] was 12.5 µg/mL (≈ 35.4 µM), the MIC [8] was 6.25 µg/mL (≈ 17.7 µM) and the “diameter of the inhibition zone (DIZ)” value [31] was 20 mm. The “diameter of the inhibition zone (DIZ)” value [32] was 24 mm, the “diameter of the inhibition zone (DIZ)” value [33] was 30 mm and the “diameter of the inhibition zone (DIZ)” value [34] was 27 mm.
